# Several values for one entry are separate records, joined by “and”; a condition that tells them apart may be missing. Identical values can stand only once.
# Columns and labels:
# Format in all cases: in vivo
# [1] = test system: blood glucose; assay: Blood glucose after 7-day administration in db/db diabetic mice
# Method: In order to examine synergistic effects of a complex by a compound prepared in Preparation Example 1 of the present invention and an insulin sensitizer PPARγ agonist, the percent inhibition of blood glucose by repeated administration of the complex to db/db mice as diabetic mice was evaluated. Eight-week-old male mice (db/db mice) were used as experimental subjects. […] The dose of a compound prepared in Preparation Example 1 with respect to rosiglitazone at a fixed dose was selected at 1 mg/kg and 40 mg/kg (complex ratio 1:0.01˜1:0.4) in consideration of a complex ratio in an expected clinical dose. […] 0.5% methylcellulose (MC) was at each drug concentration to prepare suspensions. Each compound was weighed, and 0.5% methylcellulose was used to prepare 5 mL/kg of suspensions with each composition of (1 mg of the compound prepared in Preparation Example 1+0.4 mg of rosiglitazone)/5 mL and (40 mg of the compound prepared in Preparation Example 1+0.4 mg of rosiglitazone)/5 mL.
# The percent inhibition value with respect to blood glucose was calculated by comparison with a control group.
# [2] = test system: blood glucose; assay: OGTT after 4-week administration in diet-induced obesity mice (rimonabant combination); settings: obese mice
# Method: (§1) In order to examine synergistic effects by repeated administration of a compound prepared in Preparation Example 1 and cannabinoid receptor-1 antagonist, effects of 4-week administration to obese mice on an OGTT blood glucose change curve and on fat mass were evaluated. Diet-induced obesity mice obtained by supplying experimental mice (C57BL/6 mice) with high fat fodder (60 kcal % fat, Research Diets, D12492) for 5 month were used as experimental subjects. 0.5% methylcellulose (MC) was used to prepare a suspension of the compound 1 prepared in Preparation Example 1 with a composition of 0.3 mg/kg which is presumed to be a dose of minimum effective efficacy and 3 mg/kg. 0.5% MC was used to prepare a suspension of rimonabant, a cannabinoid receptor-1 antagonist with a composition of 3 mg/kg. Rimonabant has the same parent nucleus structure as a cannabinoid receptor-1 antagonist, such as Otenabant, Ibinabant, and Surinabant, and 5 mL/kg of the complex thereof was prepared in doses of (0.3 mg of a compound prepared in Preparation Example 1+3 mg of rimonabant)/5 mL and (3 mg of a compound prepared in Preparation Example 1+3 mg/kg of rimonabant)/5 mL. When the mixing ratio is 1:0.1 or less, or 1:1 or more, the dose may exceed a daily clinical dose of rimonabant or poor efficacy may occur. Thus, the mixing ratio was set at […].
# Obese mice were fasted for 16 to 17 hours prior to the experiments, blood was collected from caudal veins of mice in the morning on the day of the experiment and a blood glucose level was measured with an ACCU-CHEK ACTIVE Blood Glucose Meter (Roche Diagnostics). The pharmaceutically mixed composition of the present invention was given orally 30 min prior to glucose administration (−30 min), followed by oral administration of a glucose solution (2 g/kg/10 mL) after 30 min (0 min). […] The percent inhibition value was calculated by calculating an area under curve of each group and comparing the value with that of a control group in which glucose had been administered.
# [3] = test system: blood glucose; assay: OGTT, single administration in C57BL/6 mice (glimepiride combination)
# Method: In order to examine synergistic effects of a complex of a compound prepared in Preparation Example 1 of the present invention and an insulin secretagogue sulfonyl urea-series drug, the percent inhibitions of single administration OGTT blood glucose change curves by individual materials and complexes were evaluated. 8-week-old male experimental mice (C57BL/6 mice) were used and fasted for 16 to 17 hours prior to the experiments. Blood was collected from caudal veins of mice in the morning on the day of the experiment and a blood glucose level was measured with an ACCU-CHEK ACTIVE Blood Glucose Meter (Roche Diagnostics). The mixed composition of the present invention was given orally 30 min prior to glucose administration (−30 min), followed by oral administration of a glucose solution (2 g/kg/10 mL) after 30 min (0 min). Blood collection was made at designated time points—just prior to drug administration, just prior to glucose administration, and 15, 30, 60 and 90 min after glucose administration. […] In order to evaluate synergistic or additive effects by complex in the present evaluation, 0.5% methylcellulose (MC) was used to prepare a suspension with a dose of a compound prepared in Preparation Example 1 at 0.1 mg/kg, and 0.5% MC was also used to prepare a suspension with a composition of an insulin secretagogue sulfonyl urea-series drug and glimepiride at 0.02 mg/kg and 0.32 mg/kg such that a complex ratio may be included at a clinical dose expected in a fixed state of a compound prepared in Preparation Example 1. […] A complex thereof was prepared at 10 mL per kg by weighing individual compounds and mixing the compounds with each composition ((a compound prepared in Preparation Example 10.1 mg+glimepiride 0.02 mg)/10 mL and (a compound prepared in Preparation Example 10.1 mg+glimepiride 0.32 mg)/10 mL)).
# [4] = test system: plasma glucose; assay: Plasma glucose after 2-week repeated administration in diet-induced obesity mice; settings: obese mice
# Method: (§2) In order to examine synergistic effects of a compound prepared in Preparation Example 1 of the present invention and metformin complex by repeated administration, effects of a single administration to obese mice on an OGTT blood glucose change curve and of a 2-week repeated administration on the percent inhibition of blood glucose were evaluated. Diet-induced obesity mice obtained by supplying experimental mice (C57BL/6 mice) with high fat fodder (60 kcal % fat, Research Diets, D12492) for 5 month were used as experimental subjects. 0.5% methylcellulose (MC) was used to prepare a suspension of the compound 1 prepared in Preparation Example 1 with a composition of 0.1 mg/kg and 0.15 mg/kg. 0.5% MC was used to prepare a suspension of metformin with a composition of 7.5 mg/kg and 15 mg/kg. […] of the complex was prepared in doses of (0.1 mg/kg of a compound prepared in Preparation Example 1+15 mg/kg of metformin)/5 mL and (0.15 mg/kg of a compound prepared in Preparation Example 1+7.5 mg/kg of metformin)/5 mL.
# [5] = test system: blood glucose; assay: Oral sucrose tolerance test, single administration in C57BL/6 mice (voglibose combination)
# Method: In order to examine synergistic effects of a compound prepared in Preparation Example 1 of the present invention and an α-glucosidase inhibitor-series drug by complexing drugs, the percent inhibition in a single administration oral sucrose tolerance test blood glucose change curve by individual materials and a complex thereof was evaluated. 8-week-old male experimental mice (C57BL/6 mice) were used as experimental subjects. The mice were fasted for 16 to 17 hours prior to the experiments. Blood was collected from caudal veins of mice in the morning on the day of the experiment and a blood glucose level was measured with an ACCU-CHEK ACTIVE Blood Glucose Meter (Roche Diagnostics). The pharmaceutically mixed composition of the present invention was given orally 30 min prior to sucrose administration (−30 min), followed by oral administration of a […] (2 g/kg/10 mL) after 30 min (0 min). Blood collection was made at designated time points—just prior to drug administration, just prior to sucrose administration, and 15, 30, 60, 90, and 120 min after sucrose administration. […] In order to evaluate synergistic or additive effects by complexes in the present evaluation, 0.5% methylcellulose (MC) was used to prepare a suspension with a compound prepared in Preparation Example 1 at a dose of 0.3 mg/kg, and 0.5% MC was also used to prepare a suspension with a composition of an α-glucosidase inhibitor and voglibose at 0.009 mg/kg and 0.054 mg/kg (complex ratio 1:0.031:0.18) such that a complex ratio may be included at a clinical dose expected in a state where a dose of a compound prepared in Preparation Example 1 was fixed.
# [6] = test system: blood glucose; assay: Oral glucose tolerance test (OGTT), single administration in normal mice; ED30 and isobologram; settings: C57BL/6 mice; for ED30 ± (SEM): dose giving 30% inhibition of OGTT blood glucose AUC, single agent
# Method: Laboratory mice (C57BL/6 mice) as experimental subjects were fasted for 16 to 17 hours prior to the experiments. Blood was collected from caudal veins of mice in the morning on the day of the experiment and a blood glucose level was measured with an ACCU-CHEK ACTIVE Blood Glucose Meter (Roche Diagnostics). The pharmaceutical composition of the present invention was given orally 30 min prior to glucose administration (−30 min), followed by oral administration of a glucose solution (2 g/kg/10 mL) after 30 min (0 min). Blood collection was made at designated time points—just prior to drug administration, just prior to glucose administration, and 15, 30, 60 and 90 min after glucose administration.
# Effects of single administration of the individual agents on a blood glucose change curve in an oral glucose tolerance test (OGTT) were identified by percent inhibition (%) and ED30. The percent inhibition values for each treatment were generated from the area under curve (AUC) data normalized to the non-glucose challenged controls by subtracted blood glucose AUC of non-glucose challenged controls from glucose challenged groups, and comparing the value with that of a control group in which glucose has been administered.
# Feasible synergistic effects of a composition at each fixed ratio were analyzed by isobologram (R. J. Tallarida et al, Life Sci. 1989, 45, 947). […] When the result of ED30mix<ED30add is established at a certain fixed ratio, the mixture has synergistic effects. ED30add was calculated from ED30 of each drug. In FIG. 1, fractions of the ED30 values of each material are present on each axis thereof. The ED30 value of the compound prepared in Preparation Example 1 only is 0.2 mg/kg and shown as value 1 in FIG. 1, and the ED30 value of metformin only is 30 mg/kg and shown as value 1 in FIG. 1. Therefore, the line combining the ED30 values of the two individual drugs indicates a simple additivity (ED30add) calculated from glucose tolerance effects at different ratios. Therefore, the points designated as A, B, C, and D in FIG. 1 with respect to each mixture studied indicate fractions of ED30 values (ED30mic) determined by actual experiments performed on a mixtures of the compound prepared in Preparation Example 1 and metformin at ratios of 9:1, 5:1, 1:1, and 1:3. The points A′, B′, C′, and D′ in FIG. 1 indicate fractions of doses (ED30add) corresponding to mixtures of the compound prepared in Preparation Example 1 and metformin at ratios of 9:1, 5:1, 1:1, and 1:3 expected under a simple additivity.
# The ratios of doses actually administered to animals in each fraction were calculated by multiplying 0.2 mg/kg and 30 mg/kg which are ED30 values of the compound prepared in Preparation Example 1 and metformin, respectively with a desired ratio. Administrations were performed in the ranges of: 0.045˜0.36 mg/kg of the compound prepared in Preparation Example 1+0.75˜6 mg/kg of metformin at a ratio of 9:1, 0.042˜0.33 mg/kg of the compound prepared in Preparation Example 1+1.25˜10 mg/kg of metformin at a ratio of 5:1, 0.025˜0.2 mg/kg of the compound prepared in Preparation Example 1+[…] of metformin at a ratio of 1:1, 0.0125˜0.2 mg/kg of the compound prepared in Preparation Example 1+5.625˜45 mg/kg of metformin at a ratio of 1:3. When this is applied to a healthy adult (about 70 kg), the dose corresponds to 0.88˜25.2 mg of the compound prepared in Preparation Example 1 and 52.5˜3150 mg of metformin, and includes a daily clinical dose of metformin, which is 500˜2000 mg.
# [7] = test system: blood glucose; assay: OGTT, single administration in diet-induced obesity mice; settings: obese mice
# Method: as §2
# Obese mice were fasted for 16 to 17 hours prior to the experiments, blood was collected from caudal veins of mice in the morning on the day of the experiment and a blood glucose level was measured with an ACCU-CHEK ACTIVE Blood Glucose Meter (Roche Diagnostics). The mixed composition of the present invention was given orally 30 min prior to glucose administration (−30 min), followed by oral administration of a glucose solution (2 g/kg/10 mL) after 30 min (0 min). Blood collection was made at designated time points—just prior to drug administration, just prior to glucose administration, and 15, 30, 60 and 90 min after glucose administration. The percent inhibition value was calculated by calculating an area under curve of each group and comparing the value with that of a control group in which glucose had been administered.
# [8] = Fat mass (epidydimal + retroperitoneal fat) after 4-week administration in diet-induced obesity mice; settings: 4 weeks; for Fat mass: HF-DIO mice (control 3.61 ± 0.20); for % reduction (fat mass): vs HF-DIO control group
# Method: as §1
# Experiments were performed on the experimental subject and experimental drug in the same manner as in Experimental Example 5-1, the fat mass was calculated as a sum of epidydimal fat and retroperitoneal fat, and fat mass 4 weeks after administration was measured.
smiles,measurement,setting,value
"CN(CCOc1ccc(CC2SC(=O)NC2=O)cc1)c1ccccn1 (stereo not shown) [Rosiglitazone, rosiglitazone, reference compound]",Percent inhibition (blood glucose vs control),[1]; 7 days oral 0.4 mg/kg,10%
"CC(C)(C)OC[C@@H]1C(=O)NCCN1C(=O)C[C@H](N)Cc1cc(F)c(F)cc1F [(R)-4-[(R)-3-amino-4-(2,4,5-trifluorophenyl)-butanoyl]-3-(t-butoxymethyl)piperazin-2-one]","Percent inhibition (blood glucose AUC, OGTT)",[2]; 4-week administration 0.3 mg/kg,18.2%
same,"Percent inhibition (blood glucose AUC, OGTT)",[2]; 4-week administration 3 mg/kg,35.3%
same,"Percent inhibition (blood glucose AUC, OGTT)",[3]; single oral dose 0.1 mg/kg,7.7%
same,Percent inhibition (plasma glucose vs control),[4]; 2-week repeated administration 0.1 mg/kg,2%
same,Percent inhibition (plasma glucose vs control),[4]; 2-week repeated administration 0.15 mg/kg,15%
same,"Percent inhibition (blood glucose AUC, oral sucrose tolerance test)",[5]; single oral dose 0.3 mg/kg,12%
same,ED30 ± (SEM),[6],0.20 mg/kg and 0.2 mg/kg and 0.20 ± 0.04 mg/kg
same,"Percent inhibition (blood glucose AUC, OGTT)",[6]; single oral dose 0.1 mg/kg,18.5%
same,"Percent inhibition (blood glucose AUC, OGTT)",[6]; single oral dose 0.3 mg/kg,38.7%
same,"Percent inhibition (blood glucose AUC, OGTT)",[6]; single oral dose 1 mg/kg,54.8%
same,Percent inhibition (blood glucose vs control),[1]; 7 days oral 1 mg/kg,21%
same,Percent inhibition (blood glucose vs control),[1]; 7 days oral 40 mg/kg,11%
same,"Percent inhibition (blood glucose AUC, OGTT)",[7]; single administration 0.1 mg/kg,2%
same,"Percent inhibition (blood glucose AUC, OGTT)",[7]; single administration 0.15 mg/kg,3%
same,Fat mass,[8]; 0.3 mg/kg,3.67 ± 0.12 g
same,% reduction (fat mass),[8]; 0.3 mg/kg,−1.65%
same,Fat mass,[8]; 3 mg/kg,3.29 ± 0.21 g
same,% reduction (fat mass),[8]; 3 mg/kg,8.71%
"CN(C)C(=N)N=C(N)N [Metformin, metformin, reference compound]",Percent inhibition (plasma glucose vs control),[4]; 2-week repeated administration 7.5 mg/kg,13%
same,Percent inhibition (plasma glucose vs control),[4]; 2-week repeated administration 15 mg/kg,14%
same,ED30 ± (SEM),[6],29.6 mg/kg and 30 mg/kg and 29.6 ± 6.68 mg/kg
same,"Percent inhibition (blood glucose AUC, OGTT)",[6]; single oral dose 10 mg/kg,7.43%
same,"Percent inhibition (blood glucose AUC, OGTT)",[6]; single oral dose 30 mg/kg,29.06%
same,"Percent inhibition (blood glucose AUC, OGTT)",[6]; single oral dose 100 mg/kg,54.46%
same,"Percent inhibition (blood glucose AUC, OGTT)",[7]; single administration 7.5 mg/kg,7%
same,"Percent inhibition (blood glucose AUC, OGTT)",[7]; single administration 15 mg/kg,11%
"Cc1c(C(=O)NN2CCCCC2)nn(-c2ccc(Cl)cc2Cl)c1-c1ccc(Cl)cc1 [Rimonabant, rimonabant, reference compound]","Percent inhibition (blood glucose AUC, OGTT)",[2]; 4-week administration 3 mg/kg,1.1%
same,Fat mass,[8]; 3 mg/kg,2.11 ± 0.31 g
same,% reduction (fat mass),[8]; 3 mg/kg,41.5%
"OCC(CO)N[C@H]1C[C@](O)(CO)[C@@H](O)[C@H](O)[C@H]1O [Voglibose, voglibose]","Percent inhibition (blood glucose AUC, oral sucrose tolerance test)",[5]; single oral dose 0.009 mg/kg,1%
same,"Percent inhibition (blood glucose AUC, oral sucrose tolerance test)",[5]; single oral dose 0.054 mg/kg,53%
"CCC1=C(C)CN(C(=O)NCCc2ccc(S(=O)(=O)NC(=O)N[C@H]3CC[C@H](C)CC3)cc2)C1=O [Glimepiride, glimepiride]","Percent inhibition (blood glucose AUC, OGTT)",[3]; single oral dose 0.02 mg/kg,−3.69%
same,"Percent inhibition (blood glucose AUC, OGTT)",[3]; single oral dose 0.32 mg/kg,10.9%
